How the values were obtained:
MAO-B = target: T1, MAO-B (Rattus norvegicus, UniProt P19643); assay: In vitro MAO-B enzyme activity radioenzymatic assay (14C-phenylethylamine substrate), rat brain crude mitochondrial fraction
T1 sequence (P19643 1-520): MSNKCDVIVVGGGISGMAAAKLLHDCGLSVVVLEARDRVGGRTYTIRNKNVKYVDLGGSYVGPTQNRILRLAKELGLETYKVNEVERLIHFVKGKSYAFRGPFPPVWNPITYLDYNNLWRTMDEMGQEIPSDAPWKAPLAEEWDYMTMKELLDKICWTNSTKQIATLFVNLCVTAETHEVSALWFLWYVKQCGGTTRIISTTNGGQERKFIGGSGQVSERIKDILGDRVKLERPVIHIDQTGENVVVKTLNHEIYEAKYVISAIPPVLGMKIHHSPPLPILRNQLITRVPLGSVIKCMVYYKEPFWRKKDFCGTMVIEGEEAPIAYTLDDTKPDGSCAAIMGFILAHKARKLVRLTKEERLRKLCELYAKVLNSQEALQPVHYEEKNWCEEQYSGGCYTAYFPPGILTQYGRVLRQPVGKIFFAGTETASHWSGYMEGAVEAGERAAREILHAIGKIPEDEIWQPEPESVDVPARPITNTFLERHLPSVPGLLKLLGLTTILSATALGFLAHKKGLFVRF

MAO-A = target: T2, MAO-A (Rattus norvegicus, UniProt P21396); assay: In vitro MAO-A enzyme activity radioenzymatic assay (14C-serotonin substrate), rat brain crude mitochondrial fraction
T2 sequence (P21396 1-526): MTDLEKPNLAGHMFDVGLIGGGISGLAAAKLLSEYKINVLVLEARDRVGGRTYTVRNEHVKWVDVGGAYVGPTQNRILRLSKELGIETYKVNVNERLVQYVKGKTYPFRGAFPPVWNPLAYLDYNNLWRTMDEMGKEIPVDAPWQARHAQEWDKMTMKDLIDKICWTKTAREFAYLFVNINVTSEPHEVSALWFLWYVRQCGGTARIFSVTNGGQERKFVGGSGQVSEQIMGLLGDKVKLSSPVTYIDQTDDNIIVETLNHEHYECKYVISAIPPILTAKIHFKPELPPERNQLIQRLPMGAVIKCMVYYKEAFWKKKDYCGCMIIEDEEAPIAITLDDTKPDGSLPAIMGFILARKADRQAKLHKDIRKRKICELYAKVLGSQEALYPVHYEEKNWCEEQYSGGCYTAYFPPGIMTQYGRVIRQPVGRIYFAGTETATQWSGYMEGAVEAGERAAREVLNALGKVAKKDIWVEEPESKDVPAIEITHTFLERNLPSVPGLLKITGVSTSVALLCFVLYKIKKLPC

| Structure (SMILES) | IC50 (MAO-B) | IC50 (MAO-A) |
| --- | --- | --- |
| NCCc1cc(=O)oc2cc(OCc3cccc(Cl)c3)ccc12 [4-(2-Aminoethyl)-7-(3-chlorobenzyloxy)-2H-chromen-2-one] | 0.25 µM | 31.8 µM |
| NCc1cc(=O)oc2cc(OCc3cccc(Cl)c3)ccc12 [4-Aminomethyl-7-(3-chlorobenzyloxy)-2H-chromen-2-one] | 0.01 µM | 1.9 µM |
| CNCCc1cc(=O)oc2cc(OCc3cccc(Cl)c3)ccc12 [4-[2-(Methylamino)ethyl]-7-(3-chlorobenzyloxy)-2H-chromen-2-one] | 0.3 µM | 74 µM |
| NC(=O)Cc1cc(=O)oc2cc(OCc3cccc(F)c3)ccc12 [4-[(Aminocarbonyl)methyl]-7-(3-fluorobenzyloxy)-2H-chromen-2-one] | 0.05 µM | 70 µM |
| CNCc1cc(=O)oc2cc(OCc3cccc(Cl)c3)ccc12 [4-[(Methylamino)methyl]-7-(3-chlorobenzyloxy)-2H-chromen-2-one] | 0.01 µM | 5.9 µM |
| CNCc1cc(=O)oc2cc(OCc3cccc(F)c3)ccc12 [4-[(Methylamino)methyl]-7-(3-fluorobenzyloxy)-2H-chromen-2-one] | 0.02 µM | 13.5 µM |

The remaining lines, values ahead:

| IC50 (MAO-B) | IC50 (MAO-A) | Structure (SMILES) |
| --- | --- | --- |
| 0.08 µM | 15.3 µM | CN(C)C(=O)CC1=CCOc2cc(OCc3ccccc3)ccc21 [4-[(Dimethylaminocarbonyl)methyl]-7-benzyloxy-2H-chromene] |
|  | 1.4 µM | NNC(=O)Cc1cc(=O)oc2cc(OCc3ccccc3)ccc12 [4-[(Hydrazinocarbonyl)methyl]-7-benzyloxy-2H-chromen-2-one] |
| 0.04 µM | > 100 µM | CN(C)C(=O)Cc1cc(=O)oc2cc(OCc3cccc(Cl)c3)ccc12 [4-[Dimethylaminocarbonyl)methyl]-7-(3-chlorobenzyloxy)-2H-chromen-2-one] |
